The source of these data is patent US20100256104A1, “NOVEL AMIDE COMPOUNDS” (ASTRAZENECA R&D, priority 2009, published 2010).

The test concerns the target T1, recombinant human GR (Homo sapiens, UniProt P04150).
T1 construct: purchased Panvera/Invitrogen P2812 (kit P2893)
T1 sequence (P04150 1-777): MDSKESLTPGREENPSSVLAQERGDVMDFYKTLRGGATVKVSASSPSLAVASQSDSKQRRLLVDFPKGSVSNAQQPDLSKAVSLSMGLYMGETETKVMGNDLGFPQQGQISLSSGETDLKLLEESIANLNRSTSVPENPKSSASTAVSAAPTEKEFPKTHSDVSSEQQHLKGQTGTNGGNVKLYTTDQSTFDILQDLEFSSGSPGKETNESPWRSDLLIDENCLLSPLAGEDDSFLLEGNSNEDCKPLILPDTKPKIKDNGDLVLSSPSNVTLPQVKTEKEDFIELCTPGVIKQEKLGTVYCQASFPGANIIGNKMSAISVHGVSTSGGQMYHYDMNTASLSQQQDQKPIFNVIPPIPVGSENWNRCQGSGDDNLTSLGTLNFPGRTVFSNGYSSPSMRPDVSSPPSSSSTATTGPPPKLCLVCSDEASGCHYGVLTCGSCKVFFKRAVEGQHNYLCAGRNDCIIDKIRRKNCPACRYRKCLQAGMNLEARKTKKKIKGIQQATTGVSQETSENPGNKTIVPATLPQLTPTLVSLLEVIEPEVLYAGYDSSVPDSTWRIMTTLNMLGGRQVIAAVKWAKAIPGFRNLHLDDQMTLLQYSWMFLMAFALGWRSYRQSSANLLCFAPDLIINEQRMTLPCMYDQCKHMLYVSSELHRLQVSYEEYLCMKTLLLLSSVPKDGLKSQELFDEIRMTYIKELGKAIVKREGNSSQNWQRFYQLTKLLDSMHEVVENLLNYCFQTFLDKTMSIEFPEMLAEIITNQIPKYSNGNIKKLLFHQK
Briefly: Human Glucocorticoid Receptor (GR) Assay, fluorescence polarization competition with GS Red tracer. As to conditions: 2 hours at room temperature, 100% control 10 μM Dexamethasone, XLfit model 205, read-out: Inhibition of GR binding, IC50. How it is done: Human Glucocorticoid Receptor (GR) Assay The assay is based on a commercial kit from Panvera/Invitrogen (Part number P2893). The assay technology is fluorescence polarization. The kit utilises recombinant human GR (Panvera, Part number P2812), a Fluoromone™ labelled tracer (GS Red, Panvera, Part number P2894) and a Stabilizing Peptide 10X (Panvera, Part number P2815). The GR and Stabilizing Peptide reagents are stored at −70° C. while the GS Red is stored at −20° C. Also included in the kit are 1M DTT (Panvera, Part number P2325, stored at −20° C.) and GR Screening buffer 10X (Panvera, Part number P2814, stored at −70° C. initially but once thawed stored at room temperature). Avoid repeated freeze/thaws for all reagents. The GR Screening buffer 10X comprises 100 mM potassium phosphate, 200 mM sodium molybdate, 1 mM EDTA and 20% DMSO. Test compounds (1 μL) and controls (1 μL) in 100% DMSO were added to black polystyrene 384-well plates (Greiner low volume black flat-bottom, part number 784076). 0% control was 100% DMSO and 100% control was 10 μM Dexamethasone. Background solution (8 μL; assay buffer 10X, Stabilizing Peptide, DTT and ice cold MQ water) was added to the background wells. GS Red solution (7 μL; assay buffer 10X, Stabilizing Peptide, DTT, GS Red and ice cold water) was added to all wells except background wells. GR solution (7 μL; assay buffer 10X, Stabilizing Peptide, DTT, GR and ice cold water) was added to all wells. The plate was sealed and incubated in a dark at room temperature for 2 hours. The plate was read in an Analyst plate reader (LJL Biosystems/Molecular Devices Corporation) or other similar plate reader capable of recording fluorescence polarization (excitation wavelength 530 nm, emission wavelength 590 nm and a dichroic mirror at 561 nm).
(In general: Fluorescence polarisation rises when a labelled molecule tumbles more slowly, as on binding a larger partner.)

Molecules are shown by their SMILES.

In the case of `CCC(=O)O[C@]1(C(=O)SCF)CC[C@H]2[C@@H]3CCC4=Cc5c(cnn5-c5cccc(C(=O)N6CCC[C@@H]6C(N)=O)c5)C[C@]4(C)[C@H]3[C@@H](O)C[C@@]21C` [Example 13, (1R,3aS,3bS,10aR,10bS,11S,12aS)-7-(3-{[(2R)-2-Carbamoylpyrrolidin-1-yl]carbonyl}phenyl)-1-{[(fluoromethyl)sulfanyl]carbonyl}-11-hydroxy-10a,12a-dimethyl-1,2,3,3a,3b,4,5,7,10,10a,10b,11,12,12a-tetradecahydrocyclopenta[5,6]naphtho[1,2-f]indazol-1-yl propanoate], the IC50 is 2.5 nM.
In the case of `CCC(=O)O[C@]1(C(=O)SCC#N)CC[C@H]2[C@@H]3CCC4=Cc5c(cnn5-c5cccc(C(=O)N6CCC[C@@H]6C(N)=O)c5)C[C@]4(C)[C@H]3[C@@H](O)C[C@@]21C` [Example 14, (1R,3aS,3bS,10aR,10bS,11S,12aS)-7-(3-{[(2R)-2-Carbamoylpyrrolidin-1-yl]carbonyl}phenyl)-1-{[(cyanomethyl)sulfanyl]carbonyl}-11-hydroxy-10a,12a-dimethyl-1,2,3,3a,3b,4,5,7,10,10a,10b,11,12,12a-tetradecahydrocyclopenta[5,6]naphtho[1,2-f]indazol-1-yl propanoate], the half-inhibitory concentration (IC50) was 6 nM.
On to `COCC(=O)O[C@]1(C(=O)SCF)CC[C@H]2[C@@H]3CCC4=Cc5c(cnn5-c5cccc(C(=O)N6CCC[C@@H]6C(N)=O)c5)C[C@]4(C)[C@@]3(F)[C@@H](O)C[C@@]21C` [Example 15, (1R,3aS,3bS,10aS,10bR,11S,12aS)-7-(3-{[(2R)-2-Carbamoylpyrrolidin-1-yl]carbonyl}phenyl)-10b-fluoro-1-{[(fluoromethyl)sulfanyl]carbonyl}-11-hydroxy-10a,12a-dimethyl-1,2,3,3a,3b,4,5,7,10,10a,10b,11,12,12a-tetradecahydrocyclopenta[5,6]naphtho[1,2-f]indazol-1-yl methoxyacetate], for which the IC50 is 4.3 nM.
With `COCC(=O)O[C@]1(C(=O)SCF)CC[C@H]2[C@@H]3CCC4=Cc5c(cnn5-c5cccc(C(=O)N6CCC[C@@H]6C(N)=O)c5)C[C@]4(C)[C@H]3[C@@H](O)C[C@@]21C` [Example 16, (1R,3aS,3bS,10aR,10bS,11S, 12aS)-7-(3-{[(2R)-2-carba-moylpyrrolidin-1-yl]carbonyl}phenyl)-1-{[(fluoromethyl)sulfanyl]carbonyl}-11-hydroxy-10a,12a-dimethyl-1,2,3,3a,3b,4,5,7,10,10a,10b, 11,12,12a-tetradecahydro-cyclopenta[5,6]naphtho[1,2-f] indazol-1-yl methoxyacetate], the IC50 is 9 nM.
Then `COCC(=O)O[C@]1(C(=O)SCF)CC[C@H]2[C@@H]3CCC4=Cc5c(cnn5-c5cccc(C(=O)NCC(N)=O)c5)C[C@]4(C)[C@@]3(F)[C@@H](O)C[C@@]21C` [Example 17, (1R,3aS,3bS,10aS,10bR,11S, 12aS)-7-{3-[(2-amino-2-oxoethyl)carbamoyl]-phenyl}-10b-fluoro-1-{[(fluoromethyl)sulfanyl]carbonyl}-11-hydroxy-10a,12a-dimethyl-1,2,3,3a,3b,4,5,7,10,10a,10b, 11,12,12a-tetradecahydro-cyclopenta[5,6]naphtho[1,2-f] indazol-1-yl methoxyacetate], with 3 nM; and `CCC(=O)O[C@]1(C(=O)SCF)CC[C@H]2[C@@H]3CCC4=Cc5c(cnn5-c5cccc(C(=O)NCC(N)=O)c5)C[C@]4(C)[C@H]3[C@@H](O)C[C@@]21C` [Example 18, (1R,3aS,3bS,10aR,10bS,11S, 12aS)-7-{3-[(2-amino-2-oxoethyl)carbamoyl]phenyl}-1-{[(fluoromethyl)sulfanyl]carbonyl}-11-hydroxy-10a, 12a-dimethyl-1,2,3,3a,3b,4,5,7,10,10a,10b,11,12,12a-tetradecahydrocyclopenta[5,6] naphtho[1,2-f]indazol-1-yl propanoate], with 1.4 nM.
With `COCC(=O)O[C@]1(C(=O)SCF)[C@H](C)C[C@H]2[C@@H]3CCC4=Cc5c(cnn5-c5cccc(C(=O)N[C@@H](C)C(N)=O)c5)C[C@]4(C)[C@@]3(F)[C@@H](O)C[C@@]21C` [Example 22, (1R,2R,3aS,3bS,10aS,10bR,11S,12aS)-7-(3-{[(1S)-2-Amino-1-methyl-2-oxoethyl]carbamoyl}phenyl)-10b-fluoro-1-{[(fluoromethyl)sulfanyl]carbonyl}-11-hydroxy-2,10a,12a-trimethyl-1,2,3,3a,3b,4,5,7,10,10a,10b,11,12,12a-tetradecahydrocyclopenta[5,6]naphtho[1,2-f]indazol-1-yl methoxyacetate], the IC50 stood at 1.9 nM.
Then `CCC(=O)O[C@]1(C(=O)SCF)CC[C@H]2[C@@H]3C[C@H](C)C4=Cc5c(cnn5-c5cccc(C(=O)N[C@@H](C)C(N)=O)c5)C[C@]4(C)[C@H]3[C@@H](O)C[C@@]21C` [Example 23, (1R,3aS,3bS,5S, 10aR,10bS,11S,12aS)-7-(3-{[(1S)-2-amino-1-methyl-2-oxoethyl]carbamoyl}phenyl)-1-{[(fluoromethyl)sulfanyl]carbonyl}-11-hydroxy-5,10a,12a-trimethyl-1,2,3,3a,3b,4,5,7,10, 10a,10b,11,12,12a-tetradecahydrocyclo-penta[5,6]naphtho [1,2-f]indazol-1-yl propanoate], with 4 nM.
Consider `CCC(=O)O[C@]1(C(=O)SCF)CC[C@H]2[C@@H]3C[C@H](C)C4=Cc5c(cnn5-c5cccc(C(=O)N[C@H](C)C(N)=O)c5)C[C@]4(C)[C@H]3[C@@H](O)C[C@@]21C` [Example 24, (1R,3aS,3bS,5S,10aR, 10bS,11S,12aS)-7-(3-{[(1R)-2-amino-1-methyl-2-oxoethyl]carbamoyl}phenyl)-1-{[(fluoromethyl)sulfanyl]carbonyl}-11-hydroxy-5,10a,12a-trimethyl-1,2,3,3a,3b,4,5,7,10, 10a,10b,11,12,12a-tetradecahydrocyclo-penta[5,6]naphtho [1,2-f]indazol-1-yl propanoate], for which the half-maximal inhibitory concentration (IC50) worked out at 2.1 nM.
As to `CCC(=O)O[C@]1(C(=O)SCF)[C@H](C)C[C@H]2[C@@H]3CCC4=Cc5c(cnn5-c5cccc(C(=O)N[C@@H](C)C(N)=O)c5)C[C@]4(C)[C@@]3(F)[C@@H](O)C[C@@]21C` [Example 25, (1R,2R,3aS,3bS, 10aS,10bR,11S,12aS)-7-(3-{[(1S)-2-amino-1-methyl-2-oxoethyl]carbamoyl}phenyl)-10b-fluoro-1-{[(fluoromethyl)-sulfanyl]carbonyl}-11-hydroxy-2,10a,12a-trimethyl-1,2,3,3a,3b,4,5,7,10, 10a,10b,11,12,12a-tetradecahydrocyclo-penta[5,6]naphtho [1,2-f]indazol-1-yl propanoate], the IC50 was determined as 2.8 nM.
In the case of `CCC(=O)O[C@]1(C(=O)SCF)[C@H](C)C[C@H]2[C@@H]3CCC4=Cc5c(cnn5-c5cccc(C(=O)N[C@H](C)C(N)=O)c5)C[C@]4(C)[C@@]3(F)[C@@H](O)C[C@@]21C` [Example 26, (1R,2R,3aS,3bS, 10aS,10bR,11S,12aS)-7-(3-{[(1R)-2-amino-1-methyl-2-oxoethyl]carbamoyl}phenyl)-10b-fluoro-1-{[(fluoromethyl)-sulfanyl]carbonyl}-11-hydroxy-2,10a,12a-trimethyl-1,2,3,3a,3b,4,5,7,10, 10a,10b,11,12,12a-tetradecahydrocyclo-penta[5,6]naphtho [1,2-f]indazol-1-yl propanoate] it was 2 nM.

The IC50 is the concentration that inhibits the measured activity by half.
